The target in one assay is human IR-B (Homo sapiens, UniProt P06213). The assay is described as follows: cell-based.
For assay [1], the target named is human insulin receptor isoform B (hIR-B) (Homo sapiens, UniProt P06213). Description: biochemical. It counts as binding.
For assay [2], the system named is STZ-induced hyperglycemic mice. To be noted: mouse, in vivo.

Consider three substances from paper PMC6372279 (eLife, 2019).

Bridge positions count the residues as written; N and C are the ends. Square brackets hold non-standard residues; d marks the D form. Ends that are not written are not given here. I, II: the chains in the order shown. Gla = N[C@@H](CC(C(=O)O)C(=O)O)C(=O)O

Sequence of human IR-B (P06213 28-758 limits assumed): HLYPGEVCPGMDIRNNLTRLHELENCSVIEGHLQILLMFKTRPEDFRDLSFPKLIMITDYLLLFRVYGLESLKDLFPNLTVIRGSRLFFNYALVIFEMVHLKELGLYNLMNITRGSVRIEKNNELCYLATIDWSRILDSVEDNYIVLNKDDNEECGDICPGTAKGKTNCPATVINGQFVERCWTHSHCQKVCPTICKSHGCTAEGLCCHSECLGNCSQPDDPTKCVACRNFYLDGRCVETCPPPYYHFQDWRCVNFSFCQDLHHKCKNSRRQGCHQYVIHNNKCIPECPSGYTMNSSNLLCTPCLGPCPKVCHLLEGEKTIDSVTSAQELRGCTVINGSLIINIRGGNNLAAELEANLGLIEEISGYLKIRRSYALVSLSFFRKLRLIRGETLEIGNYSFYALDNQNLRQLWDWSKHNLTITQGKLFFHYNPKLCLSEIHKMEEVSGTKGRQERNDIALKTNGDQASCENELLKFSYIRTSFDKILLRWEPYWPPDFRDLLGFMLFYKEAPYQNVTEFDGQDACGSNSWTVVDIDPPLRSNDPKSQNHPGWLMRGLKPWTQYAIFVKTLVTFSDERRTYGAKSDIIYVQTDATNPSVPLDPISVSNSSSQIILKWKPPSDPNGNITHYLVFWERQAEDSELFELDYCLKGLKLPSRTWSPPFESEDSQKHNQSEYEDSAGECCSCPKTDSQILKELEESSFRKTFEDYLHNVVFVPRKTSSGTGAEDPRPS
Sequence of human IR-B (P06213 763-1382 partner limits assumed): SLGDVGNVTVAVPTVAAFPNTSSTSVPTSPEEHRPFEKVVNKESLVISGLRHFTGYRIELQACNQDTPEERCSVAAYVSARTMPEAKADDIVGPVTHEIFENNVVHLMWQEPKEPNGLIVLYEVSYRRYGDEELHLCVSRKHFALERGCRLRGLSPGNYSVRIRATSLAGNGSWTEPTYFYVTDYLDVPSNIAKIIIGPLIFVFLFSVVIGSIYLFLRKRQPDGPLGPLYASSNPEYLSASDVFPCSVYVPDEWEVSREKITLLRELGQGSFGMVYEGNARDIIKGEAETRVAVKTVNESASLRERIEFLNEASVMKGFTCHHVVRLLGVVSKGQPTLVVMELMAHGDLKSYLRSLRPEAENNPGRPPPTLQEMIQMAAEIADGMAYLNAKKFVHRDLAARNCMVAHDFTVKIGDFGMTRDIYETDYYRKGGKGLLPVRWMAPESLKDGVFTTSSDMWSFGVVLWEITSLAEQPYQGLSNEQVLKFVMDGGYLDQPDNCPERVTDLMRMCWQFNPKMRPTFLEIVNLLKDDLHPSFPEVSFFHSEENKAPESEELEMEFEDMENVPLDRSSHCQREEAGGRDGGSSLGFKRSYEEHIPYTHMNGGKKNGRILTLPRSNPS
Sequence of human insulin receptor isoform B (hIR-B) (P06213 28-758 limits assumed): as the sequence (P06213 28-758 limits assumed) above
Sequence of human insulin receptor isoform B (hIR-B) (P06213 763-1382 partner limits assumed): as the sequence (P06213 763-1382 partner limits assumed) above

For the substance “I: NSDTPKHRCGSELADQYVQLCH-NH2 / II: GIV[Gla]VCCDNPCTVATLRTFCH-OH (disulfide I:9-II:7, I:21-II:20, II:6-II:11) [Con-Ins G3]”, the “potency against the human IR-B compared with Con-Ins G1 (in words)” value on human IR-B is “more than one order of magnitude less potent”. “I: NSDTPWNRCGSQITDSYR[Gla]LCPH / II: GVV[Gla]HCCKRACSNA[Gla]FMQFC-NH2 (disulfide I:9-II:7, I:21-II:20, II:6-II:11) [Con-Ins T2]”: the concentration giving a half-maximal response (EC50) on human IR-B amounted to 15.5 nM. The substance further had a half-inhibitory concentration (IC50) in assay [1] of 31.8 nM. “I: SDSGTTLVRRRLCGS[Gla]LVTYLGELCLGN / II: GIV[Gla]DCCYNDCTDEKLKEYCHTLQ-NH2 (disulfide I:13-II:7, I:25-II:20, II:6-II:11) [Con-Ins K1]”: the “Reversal of hyperglycemia (in words)” value in assay [2] was “effectively reversed hyperglycemia”. In assay [2] (SEM), the “Blood glucose, starting value” is listed as 404 (±25) mg/dL.

Broadly, the EC50 is the concentration needed to bring the measured effect to its halfway point. High values mean lower potency in that assay, low ones higher potency in that assay. For orientation: IC50 means the point on the concentration scale where inhibition reaches its midpoint. A lower IC50 goes with greater potency.
